Assays:
Bacillus sp. = experiment: Array Biosensor binding to directly immobilized magainin; conditions: analogous conditions
[1] = test system: heat-killed E. coli O157:H7 cells; experiment: Array Biosensor direct assay: Cy5-labeled cells binding to immobilized magainin; conditions: magainin I covalently (directly) immobilized via GMBS
botulinum toxoid A = botulinum toxoid A (Clostridium botulinum, UniProt P0DPI0); assay type: binding
Campylobacter sp. = experiment: Array Biosensor binding to directly immobilized magainin; conditions: analogous conditions
[2] = test system: heat-killed S. typhimurium cells; experiment: Array Biosensor direct assay: Cy5-labeled cells binding to immobilized magainin
E. coli = assay type: binding
E. coli cells = conditions: total analysis time 2.5 hours; cited from earlier work
[3] = test system: E. coli lipopolysaccharide (LPS); conditions: 5-minute competitive assays; cited from earlier work
Salmonella = assay type: binding
[4] = test system: E. coli lipopolysaccharide (LPS); experiment: Fiber optic biosensor 5-minute competitive assay with polymyxin B as capture molecule (James et al.); assay type: binding; conditions: assuming LPS monomer 4-20 kDa and 1.2×10^6 LPS molecules per cell

Chain of botulinum toxoid A (P0DPI0 whole entry, looked up): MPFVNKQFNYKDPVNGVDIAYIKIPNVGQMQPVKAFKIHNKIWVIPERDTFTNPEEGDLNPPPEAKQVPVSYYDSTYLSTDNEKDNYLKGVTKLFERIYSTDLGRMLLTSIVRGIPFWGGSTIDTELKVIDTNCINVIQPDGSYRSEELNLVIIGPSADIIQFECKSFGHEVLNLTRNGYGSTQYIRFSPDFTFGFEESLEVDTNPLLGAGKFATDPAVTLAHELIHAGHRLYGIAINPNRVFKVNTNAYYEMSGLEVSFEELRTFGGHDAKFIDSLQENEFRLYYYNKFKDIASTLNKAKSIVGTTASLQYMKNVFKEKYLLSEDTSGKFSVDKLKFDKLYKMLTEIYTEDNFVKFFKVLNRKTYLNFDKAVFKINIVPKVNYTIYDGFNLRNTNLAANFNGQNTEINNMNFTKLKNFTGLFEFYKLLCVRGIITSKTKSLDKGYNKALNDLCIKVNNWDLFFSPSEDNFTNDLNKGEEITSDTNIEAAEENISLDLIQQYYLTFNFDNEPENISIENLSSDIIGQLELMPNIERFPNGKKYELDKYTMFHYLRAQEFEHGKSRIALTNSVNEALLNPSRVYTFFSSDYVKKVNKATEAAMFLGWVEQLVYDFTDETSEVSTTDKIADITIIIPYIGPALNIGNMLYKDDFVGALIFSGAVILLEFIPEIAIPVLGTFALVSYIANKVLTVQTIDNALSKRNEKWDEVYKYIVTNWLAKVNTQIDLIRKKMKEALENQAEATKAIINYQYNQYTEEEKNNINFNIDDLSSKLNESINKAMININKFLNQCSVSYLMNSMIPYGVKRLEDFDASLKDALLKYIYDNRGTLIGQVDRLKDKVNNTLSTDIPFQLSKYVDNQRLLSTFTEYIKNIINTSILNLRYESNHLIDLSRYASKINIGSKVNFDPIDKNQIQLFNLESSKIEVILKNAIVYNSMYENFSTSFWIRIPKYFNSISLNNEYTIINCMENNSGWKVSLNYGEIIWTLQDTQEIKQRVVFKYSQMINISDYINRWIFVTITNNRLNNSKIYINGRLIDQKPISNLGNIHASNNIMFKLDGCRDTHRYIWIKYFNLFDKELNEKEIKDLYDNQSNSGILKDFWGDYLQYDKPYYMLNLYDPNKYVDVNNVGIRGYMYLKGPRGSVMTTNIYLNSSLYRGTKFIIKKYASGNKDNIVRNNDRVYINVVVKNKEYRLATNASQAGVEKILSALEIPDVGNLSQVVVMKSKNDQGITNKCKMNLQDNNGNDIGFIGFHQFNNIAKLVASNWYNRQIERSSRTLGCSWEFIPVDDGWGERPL

In the case of “Magainin I (GIGKFLHSAGKFGKAFVGEIMKS; listed as Xenopus laevis)”, the “Binding of Bacillus sp.” value (Bacillus sp.) is reported as “only trace binding”, the “Detection limit for labelled E. coli” value [1] is reported as 1.6×10^5 cell/mL and the “Binding of botulinum toxoid to immobilized capture species” value (shortened to “Binding of botulinum toxoid”) (botulinum toxoid A) is reported as “not”. For the same substance, the “Binding of Campylobacter sp.” value (Campylobacter sp.) was “only trace binding”, the “Detection limit for labelled S. typhimurium” value ([2]; magainin I covalently (directly) immobilized via GMBS, Cy5-labeled heat-killed cells) was 6.5×10^4 cell/mL and the “Concentration in solution during immobilization step at which bacterial binding saturated” value ([2]; patterning solution, target bacteria) was 0.4 mM.

With Bactenecin the “LOD for E. coli” value (E. coli) was 10^2-10^3 cfu/ml.

For “Cecropin P1 (SWLSKTAKKLENSAKKRISEGIAIAIQGGPR; Cecropin-P1; UniProt P14661 14-44, looked up)”, the “Detection limit for E. coli” value (E. coli cells) is listed as ~10^7 cfu/mL.

In the case of Polymyxin B, the “Detection limit for E. coli LPS” value [3] is given as “approx. 10 ng/mL”, the “LOD for Salmonella” value (Salmonella) is given as 10^5 cfu/ml and the “Binding of botulinum toxoid” value (botulinum toxoid A) is given as “less strongly”. The “Detection limit calculated as number of bacteria per mL” value [4] was 3×10^5-1.3×10^6 cells/mL.

In the case of “Cecropin A (KWKLFKKIEKVGQNIRDGIIKAGPAVAVVGQATQIAK)”, the “Binding of botulinum toxoid” value (botulinum toxoid A) is reported as “bound”, the “Estimated limit of detection compared with antibody-based assays” value (botulinum toxoid A) is reported as “significantly lower” and the “Preferential binding, toxoid A versus toxoid B” value (botulinum toxoid A) is reported as “bound preferentially by toxoid A”.
